Reference: US10407408B2, “Imide derivatives and use thereof as medicine” (MITSUBISHI TANABE PHARMA CORPORATION, priority 2015, dated 2019)

What was measured:
[1] = system: proMMP-9 production by human TNFα stimulated THP-1 cell; experiment: Action on proMMP-9 production by human TNFα stimulated THP-1 cell (ELISA of culture supernatant); type: cell-based; settings: THP-1 cells, human TNFα 10 ng/mL, 24 hr; IC50 from 3 concentrations (5, 50, 500 or 1, 10, 100 nmol/L); read-out: proMMP-9 suppression rate IC50
Method: Experimental Example 1: Action of Human TNFα Stimulated THP-1 Cell on proMMP-9 Production
(§1) THP-1 cell (human monocytic leukemia cell line) was adjusted to 1×10^7 cells/mL in a culture medium (10% fetal bovine serum/RPMI1640 medium), and dispensed to a 96 well multiplate. This was equilibrated under the conditions of 37° C./5% CO2, and a culture medium containing human TNFα (final concentration 10 ng/mL) and a test compound was dissolved therein. After incubation under the conditions of 37° C./5% CO2 for 24 hr, the culture medium was centrifuged and the culture supernatant was collected, which was subjected to the following measurement.
Quantification of proMMP-9 in Culture Supernatant
The proMMP-9 concentration of the collected culture supernatant was quantified using a commercially available measurement reagent (manufactured by GE Healthcare, MMP-9, Human, Biotrak ELISA System).
Calculation of proMMP-9 Suppression Rate
The proMMP-9 suppression rate of the test compound was calculated from the following formula: % suppression=100−((Test−Min)/(Max−Min)×100) wherein Max is proMMP-9 concentration of culture supernatant induced by stimulation with human TNFα, without addition of a test compound (added with solvent alone) Min is proMMP-9 concentration of culture supernatant without addition of a test compound (added with solvent alone) and without stimulation with human TNFα, and Test is proMMP-9 concentration of culture supernatant induced by stimulation with human TNFα when a test compound is added.
Furthermore, the concentration of the test compound necessary for suppressing proMMP-9 production by human TNFα stimulated THP-1 cell by 50% (IC50 value) was calculated from 3 points of proMMP-9 suppression rate at test compound concentrations of 5, 50 and 500 nmol/L or 1, 10 and 100 nmol/L.
MMP-9 is produced as a precursor proMMP-9 by the stimulated cells, extracellularly activated and expresses the physiological activity as MMP-9. That is, evaluation of the suppression of proMMP-9 produced by the cell means evaluation of the suppression of production of MMP-9. The same applies to MMP-2, and evaluation of the suppression of proMMP-2 produced by the cell means evaluation of the suppression of production of MMP-2.

[2] = system: proMMP-2 production by THP-1 cell; experiment: Action on hemostatic type proMMP-2 production by THP-1 cell (ELISA of culture supernatant); type: cell-based; settings: Homo sapiens; THP-1 cells, no stimulation, 24 hr; IC50 from 0.1, 1 and 10 μmol/L; read-out: IC50 value (μmol/L), proMMP-2 production suppression
Method: Experimental Example 2: Action of THP-1 Cell on Hemostatic Type proMMP-2 Production
as §1, with “dissolving” for “containing human TNFα (final concentration 10 ng/mL) and”, “added thereto.” for “dissolved therein.”
Quantification of proMMP-2 in Culture Supernatant
The proMMP-2 concentration of the collected culture supernatant was quantified using a commercially available measurement reagent (manufactured by GE Healthcare, MMP-2, Human, Biotrak ELISA System).
Calculation of proMMP-2 Suppression Rate
The proMMP-2 suppression rate of the test compound was calculated from the following formula: % suppress=100−((Test/Cont)×100). wherein Cont is proMMP-2 concentration of culture supernatant without addition of a test compound (added with solvent alone) and Test is proMMP-2 concentration of culture supernatant with addition of a test compound. […]

[3] = system: mouse dextran sulfuric acid induced colitis model; experiment: Suppressive action on enteritis score (Disease Activity Index, DAI) of mouse dextran sulfuric acid induced colitis model; type: in vivo; settings: mouse (C57BL/6J), oral, 30 mg/kg twice per day until day 10; AUC of DAI on days 3, 5, 7 and 10; pathology group 11.75 ± 1.18
Method: Experimental Example 4 Suppressive Action on Enteritis Score (Disease Activity Index, DAI) of Mouse Dextran Sulfuric Acid Induced Colitis Model
Mice (C57BL/6J, male, 6-week-old) were allowed to freely ingest 2.0% (w/v) dextran sulfuric acid solution for 5 days, the solution was exchanged with water, and pathology was evaluated on day 10. The test compound was orally administered twice per day at a dose of 30 mg/kg for 5 days of dextran sulfuric acid solution ingestion and thereafter until day 10. On days 3, 5, 7 and 10 from the start of the test, the body weight decrease, stool consistency, and the state of occult blood or gross bleeding were respectively scored in 0-4 points, and the mean of the total score was taken as Disease Activity Index (DAI), an index of enteritis pathology. The diagnostic criteria of the stool consistency score and occult blood or gross bleeding score were as follows.
The evaluation results are shown by the area under the curve (AUC) calculated using DAI on days 3, 5, 7 and 10.

[4] = system: rat monoiodoacetic acid-induced osteoarthritis model; experiment: Suppressive action on joints injury marker COMP in rat monoiodoacetic acid-induced osteoarthritis model; type: in vivo
Method: Experimental Example 3 Suppressive Action on Articular Joints Injury Marker Free of Rat Monoiodoacetic Acid-Induced Osteoarthritis Model
Monoiodoacetic acid solution (0.3 mg/25 μL) was injected into the right hindpaw knee joint cavity of anesthetized rats (LEW, male, 7-week-old). […] On day 5, cold phosphate buffer (20 μL) was injected into the right hindpaw knee joint cavity of the euthanized rats, and the joint cavity washing was collected. The joints injury marker COMP (Cartilage Oligomeric Matrix Protein) concentration of the joint cavity washing was quantified using a commercially available measurement reagent (Animal COMP ELISA Kit manufactured by Anamer Medical).
Calculation of Joints Injury Marker COMP Suppression Rate
The COMP suppression rate of the test compound was calculated from the following formula: % suppression=100−((Test−Min)/(Max−Min)×100) wherein Max is a COMP concentration of the joint cavity washing of the pathology group administered with a monoiodoacetic acid solution (oral administration of solvent alone), Min is a COMP concentration of the joint cavity washing of the non-treatment normal group (oral administration of solvent alone), and Test is a COMP concentration of the joint cavity washing of the test compound administration group.

IC50 [1]: 27 nM
IC50 [2]: > 10 µmol/L
SMILES: Cc1cnc(N2CCN(C(=O)c3ccc([C@@]4(C)NC(=O)NC4=O)cc3)CC2)c(C)c1 [Example 1, (R)-5-{4-[4-(3,5-dimethylpyridin-2-yl)piperazine-1-carbonyl]phenyl}-5-methylimidazolidine-2,4-dione]
DAI (AUC) [3]: 9.78 ± 0.80
Joints injury marker COMP suppression rate (%) ([4]; rat (LEW), oral, 1 mg/kg once per day, joint cavity washing on day 5): 80.9%
superiority in joints injury marker COMP suppression rate compared with Example 450 described in patent document 3 ([4]; rat monoiodoacetic acid model, both at 1 mg/kg once per day): at least 5 fold
